This is an account of results in patent publication US9701670B2, “Pyrazolyl-ureas as kinase inhibitors” (RESPIVERT LIMITED, priority 2013, dated 2017).

The nature of data set [1]: Pharmacokinetics, plasma and total colon tissue distribution in rats. The data set is classed as in vivo, male Wistar rats. The conditions noted are these: Rat. On the procedure: A study was conducted by Sai Life Sciences (Hinjewadi, Pune, India) to investigate the pharmacokinetics, as well as plasma and total colon tissue distribution of the compound of Example 77 in male Wistar rats following a single intravenous or oral administration.
30 male Wistar rats were divided into two groups: Group I (p.o.: 5 mg/kg; 27 rats) and Group II (i.v.: 0.25 mg/kg; 3 rats). Animals in Group I were administered orally with an aqueous suspension formulation (having 2% HPMC and 0.5% Tween 80) of the compound of Example 77, at a dose of 5 mg/kg. Animals in Group II were administered intravenously with a solution formulation (in 5% v/v DMSO, 7.5% w/v Solutol HS 15 and 87.5% saline (0.9% w/v NaCl)) of the compound of Example 77 at a dose of 0.25 mg/kg. From each rat, blood samples (approximately 120 μL) were collected from retro orbital plexus such that samples were obtained at pre-dose, 0.05, 0.13, 0.25, 0.5, 1, 2, 4, 8, and 24 hr (i.v.) and pre-dose, 0.5, 1, 2, 4, 6, 8, 12 and 24 hr (p.o.). Immediately after collection, plasma was harvested from blood by centrifugation and stored at −70° C. until analysis. Following collection of blood sample, the animals (Group I) were humanely euthanized by carbon dioxide asphyxiation. The total colon was isolated, flushed with cold phosphate buffer saline (pH 7.4) to remove contents and weighed. The total colon tissues homogenized with ice-cold phosphate buffered saline, pH 7.4. Buffer volume to be used for homogenization was twice the weight of tissue. All the samples were stored below −70° C. until bioanalysis. Total colon tissue homogenate volume was three times. Plasma and total colon tissue samples were quantified by LC-MS/MS method (LLOQ in plasma and total colon tissue=0.5 ng/mL)

Data set [2] in a line: Hepatic microsomal stability. The data set is classed as in vitro ADME, human. Here is the method: • Microsomal stability assays were performed with incubations of test compounds at 0.1 μM (n=2, final DMSO concentration 0.25%), and carried out using pooled human, dog and rat hepatic microsomes from Xenotech (Lots 1210153, 0810143 and 1110042, respectively) at 0.25 mg protein/mL in the presence of co-factor, NADPH. The incubations were performed at 37° C. with 100 μL aliquots taken from the incubation, at 0, 2, 5, 10 and 20 minutes and reactions terminated by addition of 100 μL of acetonitrile containing carbamazepine as analytical internal standard. […] Half-life values were calculated from the relationship T1/2(min)=−0.693/λ • where λ was the slope of the Ln concentration vs time curve. • The in vitro intrinsic clearance, CIint (mL/min/kg), was calculated and scaled to hepatic extraction ratios using the following scaling parameters and formulae.
Formulae CIint(tissue clearance) mL/min/kg=[0.693/t½(min)]×[1/microsomal protein concentration mg/mL]×[mg microsomes/g liver]×[g liver/kg body weight] […] The incubations were performed at 37° C. with 100 μL samples taken from the incubation, at 0, 10, 20, 45 and 90 minutes, and reactions terminated by addition of 100 μL of acetonitrile containing carbamazepine as analytical internal standard. […] Half-life values were calculated from the relationship T1/2(min)=−0.693/λ • where λ was the slope of the Ln concentration vs time curve. • Standard compounds testosterone, midazolam and 4-methylumbelliferone are included in the assay design.

The subject of data set [3] is β-catenin in d-U937 cells. In words: (m) Accumulation of β catenin in d-U937 cells. The data set is classed as cell-based, human. Summed up:
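PMA-differentiated U937 macrophage-type cells (100 ng/mL, 48–72 hr) were exposed to test compound or vehicle for 18 hr, then fixed. β-catenin was measured by cell ELISA (HRP/TMB, OD450-655) and normalised to crystal violet OD595. Signals below 15% of the standard control were designated "-ve".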

The test system of the next data set is SCID mice. In words: (D) Adoptive transfer in mice. It is filed as in vivo, mouse. On the procedure:
On Study day 0, female Balb/C mice are terminated and spleens obtained for CD45RB^high cell isolation (Using SCID IBD cell Separation protocol). Approximately 4×10^5 cells/mL CD45RB^high cells are then injected IP (100 μL/mouse) into female SCID animals. On study day 14, mice are weighed and randomized into treatment groups based on body weight. On Day 21, compounds are administered BID, via oral gavage, in a peanut oil vehicle at the dose levels outlined below and a dose volume of 5 mL/kg. Treatment continues until study day 42, at which point the animals are necropsied 4 hours after am administration. The colon length and weight is recorded and used as a secondary endpoint in the study as a measurement of colon oedema. The colon is then divided into six cross-sections, four of which are used for histopathology scoring (primary endpoint) and two are homogenised for cytokine analysis. Data shown is the % inhibition of the induction window between naïve animals and vehicle animals, where higher inhibition implies closer to the non-diseased, naïve, phenotype.

Where [4] appears, read: male, Wistar, plasma, intravenous 0.25 mg/kg.
Setting [5] is: male, Wistar, po, 5 mg/kg p.o., Plasma.
The mark [6] stands for this setting: male, Wistar, total colon tissue, po, 5 mg/kg p.o., Total colon.

Marks after values point to notes of the source that are not given here.

Consider `C#Cc1cc(Nc2nccc(Oc3ccc(NC(=O)Nc4cc(C(C)(C)C)nn4-c4ccc(OC)cc4)c4ccccc34)n2)cc(C(=O)NCCN2CCOCC2)c1` [Example 77, 3-((4-((4-(3-(3-(tert-Butyl)-1-(4-methoxyphenyl)-1H-pyrazol-5-yl)ureido)-naphthalen-1-yl)oxy)pyrimidin-2-yl)amino)-5-ethynyl-N-(2-morpholinoethyl)benzamide], for which the Fpo in data set [1] (5 mg/kg p.o., Plasma) is given as 0.1%. In data set [1] (setting [4]), this compound gave an AUC(0-inf) of 1190 ng·h/mL, an AUC(0-t) of 1180 ng·h/mL, a C0 of 4030 ng/mL and a Vd of 0.1 L/kg. In data set [1] (setting [4]), this compound showed a clearance of 3.5 mL/min/kg and a half-life of 48 min. For the same compound, in data set [1] (setting [5]), the AUC(0-inf) came to 17.5 ng·h/mL, the area under the curve AUC(0-t) stood at 17.5 ng·h/mL, the concentration peaked (Cmax) at 2.5 ng/mL and the Tmax stood at 6 h. In addition, in data set [1] (setting [6]), the area under the curve AUC(0-inf) worked out at 20700 ng·h/mL, the exposure AUC(0-t) was 20500 ng·h/mL, the Cmax is 2500 ng/mL and the Tmax was 4 h. Further, the hepatic clearance result in data set [2] (conclusion from Tables 9a and 9b (hepatic microsomes and hepatocytes)) was “high hepatic clearance”. The “Mean hepatic extraction ratio (Eh)” value in data set [2] (human hepatic microsomes, scaled from intrinsic clearance, mean of two experiments) is 0.94. Moreover, the “% β-catenin induction” value in data set [3] (1 μg/mL test compound) was determined as 1%. In addition, the “% β-catenin induction” value in data set [3] (5 μg/mL test compound) came out at 0%. Moreover, the “% β-catenin induction” value in data set [3] (10 μg/mL test compound) is on record as −8%. For the same compound, in the data set with SCID mice (adoptive transfer model of colonic inflammation), the “ratio of colon weight:length and relative inhibition of cytokine release” value was “significant activity”. In addition, the “% inhibition of IL-8 release” value with SCID mice (adoptive transfer mouse model, 5 mg/kg BID oral) came to 68%. For the same compound, the “% Inhibition of colon weight:length” value in the data set on SCID mice (adoptive transfer mouse model, 5 mg/kg BID oral, P < 0.05 ANOVA to vehicle) came out at 51%*.

As a reminder, the AUC(0-inf) is the area under the concentration-time curve extrapolated to infinity. A low value points to low exposure. Usually AUC(0-t) stands for the area under the concentration-time curve up to a stated or last time point. A higher AUC(0-t) goes with high exposure. As a reminder, the Vd is a proportionality between amount in the body and measured concentration, not a real space. Usually clearance stands for a measure of how efficiently the substance is removed, as volume per time. Broadly, the half-life is the time needed for the level to fall by half in the phase considered. As a reminder, the Cmax is the highest concentration seen after dosing. Broadly, the Tmax is the time from dosing to the highest level.
